How the values were obtained:
[1] = UV spectrum (absorption maximum); type: physicochemical
[2] = Degradation in rat skin homogenate (TLC after 12 h); type: in vitro ADME
Experimental: The hypodermis was carefully detached by means of a razor blade. The remaining epidermis and dermis were cut into thin lamellae and placed in a conical flask containing 20 ml of phosphate buffer of pH 8. The lamellae were then ground in a Potter mill with large teeth so as to prevent the proteases from being released from the cell nuclei. The preparation obtained was centrifuged at 25,000 rpm and the supernatant was removed. 10 μmol of the test product were suspended in 4 ml of the homogenate. After 12 h, the solutions were analyzed by TLC.
When using rat skin homogenates such as those described above, no degradation of the amides according to Examples I and III to XI was observed, whereas the amide of Example II undergoes 30% degradation.

[3] = man; cited from earlier work
[4] = tested on: esterases in the skin and plasma; conditions: loss of UV-B filtering power on the skin; cited from earlier work

UV spectrum: maximum ([1]; CHCl3) [nm]	Compound	other results
310	COC(=O)[C@H](CSCc1ccccc1)NC(=O)C=Cc1ccc(OC)cc1 [Example VI, Methyl ester of S-benzyl-N-(4-methoxycinnamoyl)-L-cysteine]	
	COC(=O)C=Cc1cn(C(=O)C=Cc2ccc(OC)cc2)cn1 [Example VIII, Methyl ester of (4-methoxycinnamoyl)imidazol-4-ylprop-2-enoic acid (amide of paramethoxycinnamic acid and the methyl ester of urocanic acid)]	UV spectrum: maximum ([1]; 100° ethanol): 350 nm
309	COC(=O)[C@H](CCSC)NC(=O)C=Cc1ccc(OC)cc1 [Example II, Methyl ester of N-(4-methoxycinnamoyl)-L-methionine]	degradation (in words) [2]: slightly degraded; metabolised at 12 h ([2]; pH 8): 30%
	COC(=O)/C=C/c1cn(C(=O)C=Cc2ccc(OC)cc2)cn1 [XI, Amide of paramethoxycinnamic acid and the methyl ester of trans-urocanic acid]	absorbing UV-A and UV-B radiation simultaneously ([1]; in words): capable of absorbing UV-A and UV-B radiation simultaneously
	O=C(O)/C=C/c1c[nH]cn1 [urocanic acid]	passage into the blood [3]: passage into human blood
309	COC(=O)[C@H](CSSC[C@H](NC(=O)C=Cc1ccc(OC)cc1)C(=O)OC)NC(=O)C=Cc1ccc(OC)cc1 [IV, Dimethyl ester of N,N'-di(4-methoxycinnamoyl)-L-cystine]	
295	COc1ccc(C=CC(=O)N2CCCCC2)cc1 [Example I, N-(4-Methoxycinnamoyl)piperidine]	
285	O=C(C=Cc1c[nH]cn1)N1CCCCC1 [X, N-[3-(1H-Imidazol-4-yl)-1-oxoprop-2-enyl]piperidine]	
306	COC(=O)[C@H](CSC)NC(=O)C=Cc1ccc(OC)cc1 [Example V, Methyl ester of S-methyl-N-(4-methoxycinnamoyl)-L-cysteine]	
	CCCCC(CC)COC(=O)C=Cc1ccc(OC)cc1 (stereo not drawn) [Ibis]	hydrolysis under the influence of the esterases in the skin and plasma [4]: hydrolyzes to p-methoxycinnamic acid
309	Amide of paramethoxycinnamic acid and the methyl ester of oxidized qlutathione [IX]	
312	COC(=O)[C@H](Cc1ccc(O)cc1)NC(=O)C=Cc1ccc(OC)cc1 [Example VII, Methyl ester of N-(4-methoxycinnamoyl)-L-tyrosine]	
314	COC(=O)[C@H](CS)NC(=O)C=Cc1ccc(OC)cc1 [III, Methyl ester of N-(4-methoxycinnamoyl)-L-cysteine]	

Reference: patent US4931471A, “Amides of paramethoxycinnamic and utilization thereof as solar filters” (priority 1985, dated 1990)
